We go through 1 molecule from patent US20250195491A1 (AEVIS BIO, INC., priority 2022, published 2025).

The subject of data set [1] is BV-2 cells. The data set is described as follows: Nitrite content in culture medium of LPS-stimulated BV-2 cells (Griess). It counts as cell-based, mouse. Particulars: BV-2, 30, 10, or 3.33 μM, LPS 1 μg/mL 24 hours, FIG. 6B. On the procedure: To further confirm the oxidative stress suppression effect, the content of nitrite released due to an inflammatory response and the expression levels of iNOS, which is an enzyme that produces nitric oxide, and COX-2, which is cyclooxygenase-2, were determined in mouse microglial cells (BV-2, ATCC, Manassas, VA, USA).
To determine the content of nitrite and the protein expression levels of iNOS and COX-2, BV-2 was seeded in a 12-well plate (Corning, MD, USA) at 1.5×10^5 cells/well, and cultured using a DMEM medium (Corning, MD, USA) containing 10% fetal bovine serum (Corning, MD, USA) and 100 U/mL of penicillin/streptomycin (Corning, MD, USA) at 37° C. in a 5% CO2 incubator for one day for stabilization. […] 1 μg/mL of LPS (Sigma, USA) was added to all experimental groups excluding the non-inflammation-induced group and allowed to react at 37° C. in a 5% CO2 incubator for 24 hours.
The cell culture solution was collected to measure the content of nitrite, and centrifuged at 3,000 rpm for 5 minutes to obtain a supernatant. The concentration of nitrite in the cell culture was measured using a microplate reader (NEO2MALPHAB Synergy Neo-2, BioTek, CA, US) according to the manual of the Griess Reagent System (#G2930, Promega, WI, USA).
On the technique in general: Griess reagent forms a coloured azo dye with nitrite.

Data set [2] in a line: Stability in human plasma (UPLC-MS quantification). Particulars: FIG. 7B. It counts as in vitro ADME. Here is the method: To plot a standard calibration curve, the stock sample was diluted by half with acetonitrile from 125 to 0.39 μg/mL to prepare standard solutions for a total of 10 samples at different concentrations, and the calibration curve was plotted as shown in FIG. 7A.
For the experiment of verifying stability in plasma, 10 μL of the test drug prepared at a concentration of 100 μg/mL was added to 90 μL of human plasma and mixed for 30 seconds, and then immediately after the addition, the plasma-mixed test drug was incubated for 15, 30, 60, or 120 minutes to prepare samples. Afterward, 400 μL of 100% ethyl acetate was added to each sample and extracted using a vortex mixture for 1 minute. […] Initially, the mobile phase B was increased from 5% to 95% until 9 minutes and analyzed, the mobile phase B was maintained 95% until 12 minutes, and then the mobile phase B was lowered to 5% and equilibrated, and used in the subsequent analysis. the flow rate of the mobile phase was 0.3 mL/min, the sample injection volume was 2 μL, and the mass spectrometer was operated in the ESI-positive mode. The spray voltage was set to 3.5 kV, and the flow rates of the nitrogen sheath gas, auxiliary gas, and sweep gas were analyzed as 50, 10, and 1 (arbitrary units), respectively. […]

Data set [3] deals with TNF-α, IL-1β, and IL-6. The data set is described as follows: Pro-inflammatory cytokine mRNA (RT-PCR) in LPS-stimulated BV-2 cells. Type of data set: cell-based, mouse. Particulars: BV-2, 30, 10, or 3.33 μM, LPS 1 μg/mL 6 hours, FIG. 5B. On the procedure: BV-2 was plated in a 6-well plate (Corning, MD, USA) at 5×10^5 cells/well, and cultured using a DMEM medium (Corning, MD, USA) containing 10% fetal bovine serum (Corning, MD, USA) and 100 U/mL of penicillin/streptomycin (Corning, MD, USA) at 37° C. in a 5% CO2 incubator for one day for stabilization. […] 1 μg/mL of LPS (Sigma, USA) was added to all experimental groups excluding the non-inflammation-induced group and allowed to react at 37° C. in a 5% CO2 incubator for 6 hours.
The drug-treated BV-2 underwent RNA prep according to kit manual using an RNA prep kit (Monarch Total RNA Miniprep kit, NEB, UK), and the concentration was measured using a nanophotometer (NP80, Implen, Germany). According to the concentration of each RNA sample, 1 μg of RNA was added and cDNA was synthesized according to the manual of the cDNA synthesis kit (LunaScript RT SuperMix kit, NEB, UK).
The expression level of each cytokine in the synthesized cDNA was analyzed and compared using Real-Time PCR (StepOne™Bioscience, USA) equipment. […] The Cr value for the gene of each sample obtained through real-time PCR was normalized by the value of the internal control gene (GAPDH) of each sample, the expression level was estimated inversely by 2ΔΔCT calculation, and the resulting value of each group was quantified and expressed as a percentage relative to the LPS-only treatment group.

For the molecule `Nc1cccc2c1C(=S)N(C1CCC(=O)NC1=O)C2=O` (stereo not shown) [3-MP, 3-thiopomalidomide], the “amount of residual nitrite released by LPS” value in data set [1] is “effectively reduced the amount of the residual nitrite released by LPS, compared to pomalidomide”. Besides, in data set [2] (0 to 120 minutes), the “stability in human plasma over time” value is listed as “maintained without significant changes in plasma from 0 to 120 minutes”. Further, in data set [2] (0 minutes), the “plasma level immediately after plasma addition” value was 80 µg/mL. Also, in data set [3], the “pro-inflammatory cytokine inhibition effect (mRNA)” value was “higher pro-inflammatory cytokine inhibition effect than pomalidomide”.
